Laboratory results reported in patent US7056685B1, “Receptor ligands and methods of modulating receptors” (Amgen Inc., priority 2002, dated 2006).
Entries after “also recorded” stand apart in the source; their conditions may differ. Values belong to the compound of their own block, whether it stands above or below them.

Assays:
GPR43 = biological target: T1, GPR43 (Homo sapiens, UniProt O15552); assay: GPR43 activation by fatty acids (FIG. 2); format: cell-based; conditions: for concentration at which GPR43 is activated: FIG. 2
T1 sequence (O15552 1-330): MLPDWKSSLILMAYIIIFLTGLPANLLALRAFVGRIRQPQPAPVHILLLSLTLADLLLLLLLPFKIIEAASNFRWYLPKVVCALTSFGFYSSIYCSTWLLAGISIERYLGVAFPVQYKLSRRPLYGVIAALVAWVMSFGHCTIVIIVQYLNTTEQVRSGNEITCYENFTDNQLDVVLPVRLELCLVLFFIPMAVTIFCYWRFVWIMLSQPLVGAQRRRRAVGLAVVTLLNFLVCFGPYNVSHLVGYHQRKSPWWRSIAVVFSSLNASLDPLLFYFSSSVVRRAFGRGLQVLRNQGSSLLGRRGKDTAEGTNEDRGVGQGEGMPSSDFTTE
From the text: An activated or inhibited G-protein will in turn alter the properties of downstream effectors such as proteins, enzymes, and channels. The classic examples are the activation of cGMP phosphodiesterase by transducin in the visual system, adenylate cyclase by the stimulatory G-protein, phospholipase C by Gq and other cognate G proteins, and modulation of diverse channels by Gi and other G proteins. Downstream consequences such as generation of diacyl glycerol and IP3 by phospholipase C, and in turn, for calcium mobilization e.g., by IP3 (further discussed below) can also be examined. Thus, modulators can be evaluated for the ability to stimulate or inhibit ligand-mediated downstream effects. […] Candidate modulators may be assessed for the ability to inhibit inositol phosphate accumulation and/or calcium mobilization induced by the natural ligand, e.g., β-alanine (TGR2), a 2–3 carbon chain fatty acid (GPR43), a medium or long chain fatty acid (GPR40), succinic acid (TGR18), or a-ketoglutaric acid (TGR164).
A battery of fatty acids were tested for the ability to activate GPR43.

TGR18 [1] = biological target: T2, TGR18 (Homo sapiens, UniProt Q9BXA5); assay: Inositol phosphate accumulation assay, 293 cells stably expressing TGR18; format: cell-based; design: expressed in transfected cells; transient for CRE-luciferase; conditions: 45 minutes stimulation
T2 sequence (Q9BXA5 with tags, fused parts or gaps limits assumed): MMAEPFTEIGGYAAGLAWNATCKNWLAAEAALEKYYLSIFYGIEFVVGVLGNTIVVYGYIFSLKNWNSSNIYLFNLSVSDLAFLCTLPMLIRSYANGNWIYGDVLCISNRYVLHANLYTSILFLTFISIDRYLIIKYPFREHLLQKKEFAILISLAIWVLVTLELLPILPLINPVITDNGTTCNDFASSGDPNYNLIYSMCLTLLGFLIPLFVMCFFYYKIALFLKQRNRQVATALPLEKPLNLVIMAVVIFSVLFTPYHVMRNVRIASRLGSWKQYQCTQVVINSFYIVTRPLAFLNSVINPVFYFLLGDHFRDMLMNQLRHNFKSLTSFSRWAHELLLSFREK
Method: The ability of various ligands to increase inositol phosphate was also assessed. For this analysis, 293 cells stably expression TGR18 were incubated in inositol-free DMEM/10% dialyzed FCS/1 μCi/ml ^3H-inositol for 16 hours. Following incubation 10 mM LiCi was added to the cells for 15 minutes. Cells were then stimulated with various ligands for 45 minutes and extracted with ice-cold 20 mM formic acid. H3-inositol phosphate was collected on Dowex ion-exchange column (formate form) and radioactivity recorded by Topcount scintillation counter.

TGR164 [2] = biological target: T3, TGR164 (Homo sapiens, UniProt Q96P68); assay: Aequorin assay, TGR164; format: cell-based; conditions: for activation of TGR164 in Aequorin assay: FIGS. 7A and 7B
T3 construct: expressed in transfected cells; also 'various cell lines'

TGR164 [3] = biological target: T3, TGR164; assay: Inositol phosphate accumulation assay, TGR164; format: cell-based
TGR18 [4] = biological target: T2, TGR18; assay: FLIPR intracellular calcium assay, 293 cells stably expressing TGR18; format: cell-based; design: expressed in transfected cells; transient for CRE-luciferase; conditions: for activation of TGR18 in FLIPR assay: FIG. 6C
Method: Mobilization of intracellular calcium in response to various ligands was also evaluated using a FLIPR assay. In this assay, 293 cells stably expressing TGR18 were seeded into 384-well plates and incubated at 37° C. overnight. The growth medium was then aspirated and replaced with 50 μl loading medium (FLIPR no-wash kit, Molecular Devices) and incubated at 37° C. for 1 hour. The cells were placed in a fluorometric imaging plate reader (FLIPR), and changes in cellular fluorescence were recorded after the addition of 25 μl of various ligands diluted in FLIPR buffer (FLIPR no-wash kit, Molecular Devices). Analogs of succinic acid that activated TGR18 include succinic acid, maleic acid, oxalacetic acid, methylmalonic acid and itaconic acid (FIG. 6C).

mouse TGR18 = mouse TGR18 (Mus musculus, UniProt Q99MT6); conditions: FIG. 6A
Method: (§1) In order to examine the ability of a compound to activate TGR18, CHO cells were transiently transfected with 10 μg of the GPCR and 10 μg Aequorin reporter gene in a 150 mm dish. As a negative control, the same amount of empty vector and the Aequorin reporter were cotransfected into CHO cells. After 24 hours, cells were harvested and resuspended in Aequorin buffer (Hank's buffered saline with 20 mM Hepes, pH7.6 and 0.1% BSA) containing 1 μg/ml coelenterazine f and incubated at room temperature for a further 2 hours. The Aequorin luminescence was recorded on Microlumat after injecting 100 μl of cells into 100 μl of ligand prepared in Aequorin buffer.

rat TGR18 = rat TGR18 (Rattus norvegicus, UniProt Q6IYF9); conditions: FIG. 6A
Method: as §1

Human TGR18 = Human TGR18 (Homo sapiens, UniProt Q9BXA5); conditions: FIG. 6A
Method: as §1

thirty other GPCRs = conditions: at 100 μM
Method: as §1

TGR18 [5] = biological target: T2, TGR18; conditions: 293 cells; 6 hours
Method: The ability of a ligand to induce TGR18-mediated activation of a CRE-luciferase reporter was also evaluated. For this assay, 293 cells were transiently transfected with CRE-luciferase reporter, tk-renila luciferase reporter and TGR18 plasmid. Succinic acid was then added to the cell culture supernatants and incubated for a further 6 hours. The luminescence were recorded on CLIPR after cell lysis as illustrated in Dual-luciferase assay kit (Promega).

TGR18 [6] = biological target: T2, TGR18; assay: TGR18 ligand activity, assay not specified (introduction); format: cell-based; design: expressed in transfected cells; transient for CRE-luciferase
TGR2 [7] = biological target: T4, TGR2 (Homo sapiens, UniProt Q8TDS7)
40 other orphan GPCRs = conditions: at 10 μM
TGR2 [8] = biological target: T4, TGR2; assay: Aequorin assay, CHO cells transiently transfected with TGR2; format: cell-based; design: expressed in transfected cells; host or cells: CHO cells, transient
mMrgD = mMrgD (Mus musculus, UniProt Q91ZB8)
GPR77 = biological target: T5, GPR77 (Homo sapiens, UniProt Q9P296); assay: Competitive binding assay, membrane binding format, cells transiently transfected with GPR77
T5 construct: expressed in transfected cells
From the text: GPR77 was transiently transfected into cells.

T4 sequence (Q8TDS7 whole entry): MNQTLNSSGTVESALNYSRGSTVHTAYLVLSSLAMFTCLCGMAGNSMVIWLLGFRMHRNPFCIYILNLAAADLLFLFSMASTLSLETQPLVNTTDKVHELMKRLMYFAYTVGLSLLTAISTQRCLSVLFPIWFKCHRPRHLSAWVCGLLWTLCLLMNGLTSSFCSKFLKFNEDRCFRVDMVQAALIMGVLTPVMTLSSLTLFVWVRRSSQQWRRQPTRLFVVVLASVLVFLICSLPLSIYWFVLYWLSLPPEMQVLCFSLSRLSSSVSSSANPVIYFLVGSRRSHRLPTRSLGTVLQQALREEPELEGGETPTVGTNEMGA
T5 sequence (Q9P296 whole entry): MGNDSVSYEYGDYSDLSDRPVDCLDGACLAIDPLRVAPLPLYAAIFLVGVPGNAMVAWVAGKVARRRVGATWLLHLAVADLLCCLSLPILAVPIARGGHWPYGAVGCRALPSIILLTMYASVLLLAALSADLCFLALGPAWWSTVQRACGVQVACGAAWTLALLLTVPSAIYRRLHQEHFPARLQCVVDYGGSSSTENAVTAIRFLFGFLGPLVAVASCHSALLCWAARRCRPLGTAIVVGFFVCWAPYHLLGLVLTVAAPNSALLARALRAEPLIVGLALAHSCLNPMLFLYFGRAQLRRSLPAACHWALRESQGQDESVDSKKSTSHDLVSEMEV
Sequence of mouse TGR18 (Q99MT6 whole entry): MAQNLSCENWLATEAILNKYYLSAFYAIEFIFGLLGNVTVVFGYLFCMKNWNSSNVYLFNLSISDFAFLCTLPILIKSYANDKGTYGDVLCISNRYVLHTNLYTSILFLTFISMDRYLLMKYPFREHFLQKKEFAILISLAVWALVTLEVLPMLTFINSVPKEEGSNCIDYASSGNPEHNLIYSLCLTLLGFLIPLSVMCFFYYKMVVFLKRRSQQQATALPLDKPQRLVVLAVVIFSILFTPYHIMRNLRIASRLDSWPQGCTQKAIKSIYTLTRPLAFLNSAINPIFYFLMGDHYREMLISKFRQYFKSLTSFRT
Sequence of mMrgD (Q91ZB8 whole entry): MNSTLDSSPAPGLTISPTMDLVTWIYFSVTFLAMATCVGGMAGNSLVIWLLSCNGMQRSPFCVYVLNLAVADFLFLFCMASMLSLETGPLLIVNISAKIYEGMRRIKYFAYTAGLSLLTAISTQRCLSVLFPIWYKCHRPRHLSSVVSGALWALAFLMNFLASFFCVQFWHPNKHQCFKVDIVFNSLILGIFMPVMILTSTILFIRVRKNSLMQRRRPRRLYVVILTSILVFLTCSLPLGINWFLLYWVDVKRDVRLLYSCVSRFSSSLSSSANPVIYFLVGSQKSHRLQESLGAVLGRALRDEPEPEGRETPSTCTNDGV
Sequence of rat TGR18 (Q6IYF9 whole entry): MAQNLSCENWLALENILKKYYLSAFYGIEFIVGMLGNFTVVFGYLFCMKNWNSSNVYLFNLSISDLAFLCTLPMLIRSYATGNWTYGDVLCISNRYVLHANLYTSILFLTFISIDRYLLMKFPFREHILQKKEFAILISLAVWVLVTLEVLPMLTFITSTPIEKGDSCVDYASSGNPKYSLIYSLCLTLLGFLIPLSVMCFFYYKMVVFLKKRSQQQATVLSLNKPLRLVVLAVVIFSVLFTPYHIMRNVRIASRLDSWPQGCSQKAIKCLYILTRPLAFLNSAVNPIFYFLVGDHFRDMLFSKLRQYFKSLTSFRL

Compound: CC(=O)O [acetate]
concentration at which GPR43 is activated (GPR43): about 140 μM

increase of inositol phosphate levels, TGR18 (TGR18 [1]): did not
Compound: O=C(O)/C=C/C(=O)O [fumaric acid]

activation of GPR43 (GPR43): do not activate
Compound: CCCCCCC(=O)O [heptanoeate]

Compound: C=C(CC(=O)O)C(=O)O [itaconic acid]
activation of TGR164 in Aequorin assay (TGR164 [2]): activated
inositol phosphate accumulation, TGR164 (TGR164 [3]): observed
activation of TGR18 in FLIPR assay (TGR18 [4]): activated

activation of TGR18 in FLIPR assay (TGR18 [4]): activated
Compound: O=C(O)/C=C\C(=O)O [maleic acid]

Compound: CC(C(=O)O)C(=O)O [methylmalonic acid]
activation of TGR18 in FLIPR assay (TGR18 [4]): activated

Compound: CCCCCCCC(=O)O [octanoate]
activation of GPR43 (GPR43): do not activate

activation of TGR18 in FLIPR assay (TGR18 [4]): activated
Compound: O=C(O)CC(=O)C(=O)O [oxalacetic acid]

Compound: CCCCC(=O)O [pentanoate]
activation of GPR43 (GPR43): do not activate

concentration at which GPR43 is activated (GPR43): about 140 μM
Compound: CCC(=O)O [propionate]

activation of mouse TGR18 in Aequorin assay (mouse TGR18): activated
activation of rat TGR18 in Aequorin assay (rat TGR18): activated
activation of human TGR18 in Aequorin assay (Human TGR18): activated
increase of inositol phosphate levels, TGR18 (TGR18 [1]): increased inositol phosphate levels
TGR18-mediated activation of CRE-luciferase reporter (TGR18 [5]): induced
EC50 (TGR18 [4]; 293 cells stably expressing TGR18, FIG. 6B, read-out: EC50 of TGR18 activation in FLIPR assay): ~27 µM
activation of TGR18 in FLIPR assay (TGR18 [4]): activated
Compound: O=C(O)CCC(=O)O [succinic acid]
activation of thirty other GPCRs (thirty other GPCRs): does not activate

ligand for / activation of TGR18 (TGR18 [6]): ligands for TGR18
Compound: O=C1CCC(=O)O1 [succinic anhydride]

activation of TGR164 in Aequorin assay (TGR164 [2]): TGR164 ligand
activation of TGR164 in Aequorin assays in multiple cell lines (TGR164 [2]; multiple cell lines): activates
inositol phosphate accumulation, TGR164 (TGR164 [3]): observed
Compound: O=C(O)CCC(=O)C(=O)O [α-ketoglutaric acid]

activation of TGR2 in inositol phosphate accumulation assay (TGR2 [7]): activated
EC50 (TGR2 [8]; CHO cells transiently transfected with TGR2, FIG. 1): 9.1 µM
activation of TGR2 (increase in intracellular calcium), library screen (TGR2 [8]; at 10 μM): positive hit
activation of mouse ortholog mMrgD in Aequorin assay (mMrgD): specifically activated
Compound: NCCC(=O)O [β-alanine]
activation of 40 other orphan GPCRs (40 other orphan GPCRs): did not activate

Compound: ASP: Acylation stimulating protein, identical to the desarginated form of complement C3a, i.e., C3adesArg
binding to GPR77, competition with C5a and C3a (GPR77): shown to bind to GPR77; also recorded: competed with C5a and C3a
